Laboratory results as given in article PMC12809504, “Polo-like kinase 1–inhibitor co-complex structures via the surface-entropy reduction approach and a DARPin-assisted approach” (Acta Crystallographica Section D: Structural Biology, 2025).

Key:
[1] = biological target: T1, Polo-like kinase 1 (PLK1) (Homo sapiens, UniProt P53350); test: TR-FRET kinase-activity assay, […] ATP; assay type: biochemical; set-up: kinase domain, residues 33–345, PLK1^WT
[2] = biological target: T1, Polo-like kinase 1 (PLK1); test: (soak, […] Å); IC50 by TR-FRET kinase assay at […] ATP; assay type: biochemical; set-up: kinase domain, residues 33–345 (Ala33–Lys345), PLK1^WT; with DARPin 3H10 (crystal structure only)

T1 sequence (P53350 33-345): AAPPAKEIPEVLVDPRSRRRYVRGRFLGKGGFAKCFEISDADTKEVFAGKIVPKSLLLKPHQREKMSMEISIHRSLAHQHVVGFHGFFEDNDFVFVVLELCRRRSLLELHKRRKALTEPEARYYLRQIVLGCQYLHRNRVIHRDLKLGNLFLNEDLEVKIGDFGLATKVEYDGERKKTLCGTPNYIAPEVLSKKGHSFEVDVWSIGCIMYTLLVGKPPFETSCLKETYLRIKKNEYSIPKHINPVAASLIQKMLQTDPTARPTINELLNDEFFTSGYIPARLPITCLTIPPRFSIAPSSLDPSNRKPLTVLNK

## CCn1c(=C(C#N)C(=O)NCC(F)(F)F)sc(=CNc2cccc(CCN3CCCC3)c2)c1=O [ZK-Thiazolidinone]
[1]
  IC50: 178 ± 52.6 nM

## CCn1c(=O)c(=CNc2ccnc(N(C)C3CCN(C)CC3)c2)s/c1=C(/C#N)C(=O)NCC(F)(F)F [compound 1, (2Z)-2-cyano-2-{3-ethyl-5-[({2-[methyl(1-methylpiperidin-4-yl)amino]pyridin-4-yl}amino)methylidene]-4-oxo-1,3-thiazolidin-2-ylidene}-N-(2,2,2-trifluoroethyl)acetamide]
[2]
  IC50: 3.6 ± 2.3 nM
